These results are taken from publication PMC11732879, “Preclinical evaluation of ^225Ac-labeled minigastrin analog DOTA-CCK-66 for Targeted Alpha Therapy” (European Journal of Nuclear Medicine and Molecular Imaging, 2024).

One data set is described as follows: in vivo. Set-up: species or system 394-NOD SCID mice. The conditions noted are these: 394-NOD SCID, mouse, 1.1 MBq. The method, then: Static PET/CT images of control group animals were acquired (n = 5) 1 h after injection of [^68Ga]Ga-DOTA-CCK-66 using a preclinical PET/CT scanner (Genisys 8 PET/CT; Sofie Biosciences, Dulles, VA, USA), according to a published procedure. PET image reconstruction was carried out using a maximum-likelihood expectation maximization with 60 iterations. Correction for photon attenuation of all images was performed. Acquisition parameters for CT applications were 40 kVp and […]. Acquired data were analyzed using OsiriX Imaging Software (version 3.9.3; Pixmeo SARL, Bernex, Switzerland).

For the next data set, the system named is AR42J tumor. Nature of the data set: Single-dose treatment study (tumor volume, survival). The class given is in vivo, 394-NOD SCID mice. The conditions noted are these: for Tumor volume: single injection on day 0: [225Ac] 37 kBq (178 pmol), caliper, mean±SD, n=5. Here is the method:
AR42J cells (2 × 10^6 cells, 100 µL suspended in Matrigel) were subcutaneously inoculated into the right shoulder region of mice. When tumors reached 30 to 290 mm^3 (14 to 17 d after inoculation), […] into 3 groups (5 per group). On day 0 of the experiment mice received a single-dose injection of either [^68Ga]Ga-DOTA-CCK-66 (1.1 MBq, PET/CT imaging, control cohort), [^177Lu]Lu-DOTA-CCK-66 (37 MBq) or [^225Ac]Ac-DOTA-CCK-66 (37 kBq). Tumor volume (caliper measurements, length^2 × width/2) and body weight of all animals were subsequently monitored twice a week. Animals were sacrificed after reaching one of the end-point criteria (weight loss of more than 20%, tumor volume of more than 2,000 mm^3, ulceration of the tumor, respiratory distress, or change of behavior).

The structures appear in SMILES notation. *1 amine or outer side, *2 acyl side, *3 side chain or, on linkers, in order; H or OH if unused. Where a SMILES comes first, the peptide text is derived from it. [ ]: non-standard residue; d: D form. The star is where a group is joined. DOTA = O=C(O)CN1CCN(CC(=O)O)CCN(CC(=O)*)CCN(CC(=O)O)CC1; d(γGlu) = O=C(O)[C@@H](CCC(=O)[*:2])N[*:1]; 1Nal = N[C@@H](Cc1cccc2ccccc12)C(=O)O; NMeNle = CCCC[C@H](NC)C(=O)O; PEG4 = NCCOCCOCCOCCOCCC(=O)O

In turn, `CCCC[C@@H](C(=O)N[C@@H](CC(=O)O)C(=O)N[C@@H](Cc1cccc2ccccc12)C(N)=O)N(C)C(=O)[C@H](Cc1c[nH]c2ccccc12)NC(=O)CCOCCOCCOCCOCCNC(=O)CC[C@@H](NC(=O)CN1CCN(CC(=O)O)CCN(CC(=O)O)CCN(CC(=O)O)CC1)C(=O)O` [[^68Ga]Ga-DOTA-CCK-66, metal not drawn] ({DOTA-d(γGlu)-PEG4}-W[NMeNle]D[1Nal]-NH2) came in with an SUV at 1 h in “in vivo” of 2.02 ± 0.77 SUV.

For `CCCC[C@@H](C(=O)N[C@@H](CC(=O)O)C(=O)N[C@@H](Cc1cccc2ccccc12)C(N)=O)N(C)C(=O)[C@H](Cc1c[nH]c2ccccc12)NC(=O)CCOCCOCCOCCOCCNC(=O)CC[C@@H](NC(=O)CN1CCN(CC(=O)O)CCN(CC(=O)O)CCN(CC(=O)O)CC1)C(=O)O` [[^225Ac]Ac-DOTA-CCK-66] [metal not drawn] ({DOTA-d(γGlu)-PEG4}-W[NMeNle]D[1Nal]-NH2), in the data set with AR42J tumor (54 d versus 37 d, p = 0.0003), the “fold increase in mean survival, 225Ac-TAT compared to 177Lu-RLT” value stood at 1.5 fold. In addition, the Tumor volume in the data set on AR42J tumor (day 0, [177Lu] 37 MBq (1.7 nmol), [68Ga] control cohort 1.1 MBq (29 pmol)) is 150±80 mm^3; with AR42J tumor (day 3, [177Lu] 37 MBq (1.7 nmol), [68Ga] control cohort 1.1 MBq (29 pmol)) it was 170±110 mm^3; in the data set with AR42J tumor (day 7, [177Lu] 37 MBq (1.7 nmol), [68Ga] control cohort 1.1 MBq (29 pmol)), 130±60 mm^3; with AR42J tumor (day 10, [177Lu] 37 MBq (1.7 nmol), [68Ga] control cohort 1.1 MBq (29 pmol)), 100±60 mm^3; with AR42J tumor (day 14, [177Lu] 37 MBq (1.7 nmol)), 100±50 mm^3; in the data set on AR42J tumor (day 17, [177Lu] 37 MBq (1.7 nmol)) it was 100±50 mm^3. Besides, the Tumor volume in the data set on AR42J tumor (day 21, [177Lu] 37 MBq (1.7 nmol)) was 90±60 mm^3; with AR42J tumor (day 24, [177Lu] 37 MBq (1.7 nmol)), 130±70 mm^3; in the data set with AR42J tumor (day 28, [177Lu] 37 MBq (1.7 nmol)), 130±80 mm^3; with AR42J tumor (day 31, [177Lu] 37 MBq (1.7 nmol)) it was 160±90 mm^3; in the data set on AR42J tumor (day 35) it was 240±130 mm^3; with AR42J tumor (day 38), 470±280 mm^3. Moreover, the Tumor volume in the data set on AR42J tumor (day 42) is on record as 740±430 mm^3; in the data set on AR42J tumor (day 45), 1,040±690 mm^3; in the data set with AR42J tumor (day 49) it was 1,600±830 mm^3. The Mean survival in the data set with AR42J tumor (single dose on day 0: [225Ac] 37 kBq, [177Lu] 37 MBq, [68Ga] 1.1 MBq (control group), n=5 per group) stood at 54 ± 6 days. In addition, the “fold increase in mean survival versus control group” value with AR42J tumor (single dose: [225Ac] 37 kBq, [177Lu] 37 MBq, control 12 ± 3 d) came to 4.5 fold.
